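Abbreviation: GI50, concentration required for 50% inhibition of growth. TGI denotes the concentration required for complete inhibition of growth.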
Experiments:
Test in all cases: NCI-60 cell line screen, 384-well format
HL-60(TB) leukemia = tested on: HL-60(TB) leukemia
HCT-116 colon = tested on: HCT-116 colon
NCI-H226 lung = tested on: NCI-H226 lung
RXF 393 renal = tested on: RXF 393 renal
A498 renal = tested on: A498 renal
RPMI-8226 leukemia = tested on: RPMI-8226 leukemia
NCI/ADR-RES ovarian = tested on: NCI/ADR-RES ovarian
SK-MEL-5 melanoma = tested on: SK-MEL-5 melanoma
PC-3 prostate = tested on: PC-3 prostate
SK-OV-3 ovarian = tested on: SK-OV-3 ovarian
MCF7 breast = tested on: MCF7 breast
UACC-257 melanoma = tested on: UACC-257 melanoma
UACC-62 melanoma = tested on: UACC-62 melanoma
OVCAR-3 ovarian = tested on: OVCAR-3 ovarian
HS 578T breast = tested on: HS 578T breast
MDA-MB-435 melanoma = tested on: MDA-MB-435 melanoma
SNB-75 CNS = tested on: SNB-75 CNS
MOLT-4 leukemia = tested on: MOLT-4 leukemia
OVCAR-5 ovarian = tested on: OVCAR-5 ovarian
NCI-H322M lung = tested on: NCI-H322M lung
NCI-H460 NSCLC = tested on: NCI-H460 NSCLC
SF-268 CNS = tested on: SF-268 CNS
SF-295 CNS = tested on: SF-295 CNS
HOP-92 NSCLC = tested on: HOP-92 NSCLC
BT-549 breast = tested on: BT-549 breast
SF-539 CNS = tested on: SF-539 CNS
MDA-MB-231 breast = tested on: MDA-MB-231 breast
TK-10 renal = tested on: TK-10 renal
SN12C renal = tested on: SN12C renal
LOX IMVI melanoma = tested on: LOX IMVI melanoma
IGROV1 ovarian = tested on: IGROV1 ovarian
A549 NSCLC = tested on: A549 NSCLC
HT29 colon = tested on: HT29 colon
MDA-MB-468 breast = tested on: MDA-MB-468 breast
NCI-H23 lung = tested on: NCI-H23 lung
HOP-62 NSCLC = tested on: HOP-62 NSCLC
MALME-3M melanoma = tested on: MALME-3M melanoma
DU-145 prostate = tested on: DU-145 prostate
SR leukemia = tested on: SR leukemia
ACHN renal = tested on: ACHN renal
OVCAR-4 ovarian = tested on: OVCAR-4 ovarian
T-47D breast = tested on: T-47D breast
OVCAR-8 ovarian = tested on: OVCAR-8 ovarian
COLO 205 colon = tested on: COLO 205 colon
HCT-15 colon = tested on: HCT-15 colon
SNB-19 CNS = tested on: SNB-19 CNS
KM12 colon = tested on: KM12 colon
EKVX NSCLC = tested on: EKVX NSCLC
NCI-H522 lung = tested on: NCI-H522 lung
CAKI-1 renal = tested on: CAKI-1 renal
U251 glioblastoma = tested on: U251 glioblastoma
SK-MEL-28 melanoma = tested on: SK-MEL-28 melanoma
M14 melanoma = tested on: M14 melanoma
HCC-2998 colon = tested on: HCC-2998 colon
SW-620 colon = tested on: SW-620 colon
UO-31 renal = tested on: UO-31 renal
K-562 leukemia = tested on: K-562 leukemia
CCRF-CEM leukemia = tested on: CCRF-CEM leukemia
786-0 renal = tested on: 786-0 renal

## Cn1ncnc1C1c2n[nH]c(=O)c3cc(F)cc(c23)NC1c1ccc(F)cc1 (stereo not drawn)
HL-60(TB) leukemia
  GI50: 1200 nM
  TGI: 2560 nM
HCT-116 colon
  GI50: 857 nM
  TGI: > 100000 nM
NCI-H226 lung
  GI50: > 100000 nM
  TGI: > 100000 nM
RXF 393 renal
  GI50: > 100000 nM
  TGI: > 100000 nM
A498 renal
  GI50: 24800 nM
  TGI: > 100000 nM
RPMI-8226 leukemia
  GI50: 1650 nM
  TGI: > 100000 nM
NCI/ADR-RES ovarian
  GI50: 8170 nM
  TGI: > 100000 nM
SK-MEL-5 melanoma
  GI50: > 100000 nM
  TGI: > 100000 nM
PC-3 prostate
  GI50: > 100000 nM
  TGI: > 100000 nM
SK-OV-3 ovarian
  GI50: 2300 nM
  TGI: > 100000 nM
MCF7 breast
  GI50: 3630 nM
  TGI: > 100000 nM
UACC-257 melanoma
  GI50: > 100000 nM
  TGI: > 100000 nM
UACC-62 melanoma
  GI50: > 100000 nM
  TGI: > 100000 nM
OVCAR-3 ovarian
  GI50: 82700 nM
  TGI: > 100000 nM
HS 578T breast
  GI50: > 100000 nM
  TGI: > 100000 nM
MDA-MB-435 melanoma
  GI50: > 100000 nM
  TGI: > 100000 nM
SNB-75 CNS
  GI50: 5520 nM
  TGI: > 100000 nM
MOLT-4 leukemia
  GI50: 234 nM
  TGI: 1060 nM
OVCAR-5 ovarian
  GI50: > 100000 nM
  TGI: > 100000 nM
NCI-H322M lung
  GI50: > 100000 nM
  TGI: > 100000 nM
NCI-H460 NSCLC
  GI50: 19.1 nM
  TGI: 1560 nM
SF-268 CNS
  GI50: 1730 nM
  TGI: > 100000 nM
SF-295 CNS
  GI50: 383 nM
  TGI: 8070 nM
HOP-92 NSCLC
  GI50: > 100000 nM
  TGI: > 100000 nM
BT-549 breast
  GI50: 4680 nM
  TGI: > 100000 nM
SF-539 CNS
  GI50: 1810 nM
  TGI: > 100000 nM
MDA-MB-231 breast
  GI50: > 100000 nM
  TGI: > 100000 nM
TK-10 renal
  GI50: > 100000 nM
  TGI: > 100000 nM
SN12C renal
  GI50: 1530 nM
  TGI: > 100000 nM
LOX IMVI melanoma
  GI50: 2430 nM
  TGI: > 100000 nM
IGROV1 ovarian
  GI50: > 100000 nM
  TGI: > 100000 nM
A549 NSCLC
  GI50: > 100000 nM
  TGI: > 100000 nM
HT29 colon
  GI50: > 100000 nM
  TGI: > 100000 nM
MDA-MB-468 breast
  GI50: 677 nM
  TGI: 4680 nM
NCI-H23 lung
  GI50: 1890 nM
  TGI: > 100000 nM
HOP-62 NSCLC
  GI50: 278 nM
  TGI: 4140 nM
MALME-3M melanoma
  GI50: > 100000 nM
  TGI: > 100000 nM
DU-145 prostate
  GI50: 2200 nM
  TGI: 14400 nM
SR leukemia
  TGI: 21.5 nM
ACHN renal
  GI50: 43600 nM
  TGI: > 100000 nM
OVCAR-4 ovarian
  GI50: 19000 nM
  TGI: > 100000 nM
T-47D breast
  GI50: > 100000 nM
  TGI: > 100000 nM
OVCAR-8 ovarian
  GI50: 2150 nM
  TGI: > 100000 nM
COLO 205 colon
  GI50: 1850 nM
  TGI: > 100000 nM
HCT-15 colon
  GI50: 32500 nM
  TGI: > 100000 nM
SNB-19 CNS
  GI50: 5200 nM
  TGI: > 100000 nM
KM12 colon
  GI50: > 100000 nM
  TGI: > 100000 nM
EKVX NSCLC
  GI50: > 100000 nM
  TGI: > 100000 nM
NCI-H522 lung
  GI50: > 100000 nM
  TGI: > 100000 nM
CAKI-1 renal
  GI50: > 100000 nM
  TGI: > 100000 nM
U251 glioblastoma
  GI50: 3460 nM
  TGI: > 100000 nM
SK-MEL-28 melanoma
  GI50: > 100000 nM
  TGI: > 100000 nM

## Nc1nc(Cl)nc2c1ncn2[C@@H]1O[C@H](COS(N)(=O)=O)[C@@H](O)[C@H]1O
HCT-116 colon
  TGI: 40.9 nM
M14 melanoma
  GI50: 16.6 nM
  TGI: 30.4 nM
HCC-2998 colon
  GI50: 14.6 nM
  TGI: 28.9 nM
SW-620 colon
  TGI: 42.8 nM
RXF 393 renal
  GI50: 16.5 nM
  TGI: 31.9 nM
A498 renal
  GI50: 19.8 nM
  TGI: 39.2 nM
RPMI-8226 leukemia
  TGI: 11.8 nM
SK-MEL-5 melanoma
  GI50: 15.9 nM
  TGI: 29.6 nM
PC-3 prostate
  GI50: 12.3 nM
  TGI: 33.6 nM
SK-OV-3 ovarian
  GI50: 12.4 nM
  TGI: 44.1 nM
MCF7 breast
  TGI: 69.7 nM
UACC-257 melanoma
  GI50: 20.1 nM
  TGI: 36.5 nM
UACC-62 melanoma
  GI50: 16.4 nM
  TGI: 30.3 nM
OVCAR-3 ovarian
  GI50: 20.9 nM
  TGI: 41.5 nM
HS 578T breast
  GI50: 15.1 nM
  TGI: 29.4 nM
MDA-MB-435 melanoma
  TGI: 16.7 nM
SNB-75 CNS
  TGI: 19.9 nM
NCI-H322M lung
  TGI: 27.4 nM
NCI-H460 NSCLC
  TGI: 32 nM
UO-31 renal
  GI50: 19.4 nM
  TGI: 35.8 nM
SF-268 CNS
  TGI: 11.4 nM
SF-295 CNS
  GI50: 21.4 nM
  TGI: 48.3 nM
HOP-92 NSCLC
  GI50: 10 nM
  TGI: 25 nM
SF-539 CNS
  GI50: 15 nM
  TGI: 28.6 nM
TK-10 renal
  TGI: 36 nM
K-562 leukemia
  TGI: 14 nM
LOX IMVI melanoma
  GI50: 17.3 nM
  TGI: 31.6 nM
CCRF-CEM leukemia
  TGI: 10.5 nM
IGROV1 ovarian
  GI50: 20.5 nM
  TGI: 54.7 nM
A549 NSCLC
  GI50: 15.6 nM
  TGI: 44 nM
HT29 colon
  GI50: 18.4 nM
  TGI: 33.3 nM
MDA-MB-468 breast
  GI50: 13.3 nM
  TGI: 26.5 nM
NCI-H23 lung
  GI50: 10.9 nM
  TGI: 24 nM
MALME-3M melanoma
  GI50: 11.1 nM
  TGI: 23.3 nM
ACHN renal
  GI50: 24.3 nM
  TGI: 57.5 nM
786-0 renal
  GI50: 17.3 nM
  TGI: 34.1 nM
T-47D breast
  TGI: 50.7 nM
COLO 205 colon
  GI50: 18.2 nM
  TGI: 38 nM
HCT-15 colon
  GI50: 20.7 nM
  TGI: 45.1 nM
SNB-19 CNS
  TGI: 13.6 nM
KM12 colon
  TGI: 15.1 nM
EKVX NSCLC
  GI50: 22.3 nM
  TGI: 49.5 nM
CAKI-1 renal
  GI50: 15.7 nM
  TGI: 42.2 nM
U251 glioblastoma
  GI50: 14.3 nM
  TGI: 34.2 nM
SK-MEL-28 melanoma
  GI50: 13.8 nM
  TGI: 27.1 nM

Source: PubChem BioAssay (NCI)
